According to the NIST ThermoML archive (doi:10.1021/acs.jced.8b00217):
± gives the expanded uncertainty stated by the source.

test: not given; details: 298.15 K; 101.3 kPa; Liquid; Vibrating tube method

SMILES	mass density
CCCCCCCCO [octan-1-ol]	821.98 ± 1 kg/m3
CCCCO [butan-1-ol]	805.92 ± 1 kg/m3
CCCCCCO [hexan-1-ol]	815.99 ± 1.2 kg/m3
CCCCCCCCCCO [decan-1-ol]	826.71 ± 1 kg/m3
CCO [ethanol]	785.26 ± 1 kg/m3

Now from value to compound:

mass density	SMILES
773.89 ± 1 kg/m3	C1CCCCC1 [cyclohexane]
944.31 ± 1 kg/m3	O=C1CCCC1 [cyclopentanone]

test: refractive index (Na D-line) (dimensionless); details: 298.15 K; 101.3 kPa; Liquid; Standard Abbe refractometry

SMILES	refractive index
CCCCCCCCO [octan-1-ol]	1.4276 ± 0.0011
CCCCO [butan-1-ol]	1.3971 ± 0.001
CCCCCCO [hexan-1-ol]	1.4161 ± 0.0011
CCCCCCCCCCO [decan-1-ol]	1.4352 ± 0.0011
CCO [ethanol]	1.3594 ± 0.001

Continued, values first:

refractive index	SMILES
1.4235 ± 0.001	C1CCCCC1 [cyclohexane]
1.4347 ± 0.0011	O=C1CCCC1 [cyclopentanone]

test: xn = mol fraction of the nth substance listed; details: 298.15 K; 101.3 kPa; Liquid; Vibrating tube method; x1 = 0.1

mass density	SMILES
827.28 ± 1 kg/m3	O=C1CCCC1 [cyclopentanone] + CCCCCCCCO
820.75 ± 1.1 kg/m3	O=C1CCCC1 [cyclopentanone] + CCCCO
811.02 ± 1.1 kg/m3	O=C1CCCC1 [cyclopentanone] + CCO
823.87 ± 1.1 kg/m3	O=C1CCCC1 [cyclopentanone] + CCCCCCO
829.38 ± 1 kg/m3	O=C1CCCC1 [cyclopentanone] + CCCCCCCCCCO

same assay, conditions: 298.15 K; 101.3 kPa; Liquid; Vibrating tube method; x1 = 0.2

mass density	SMILES
833.41 ± 1 kg/m3	O=C1CCCC1 [cyclopentanone] + CCCCCCCCO
835.31 ± 1.1 kg/m3	O=C1CCCC1 [cyclopentanone] + CCCCO
833.48 ± 1.1 kg/m3	O=C1CCCC1 [cyclopentanone] + CCO
832.61 ± 1.1 kg/m3	O=C1CCCC1 [cyclopentanone] + CCCCCCO
833.22 ± 1 kg/m3	O=C1CCCC1 [cyclopentanone] + CCCCCCCCCCO

same assay, conditions: 298.15 K; 101.3 kPa; Liquid; Vibrating tube method; x1 = 0.3

mass density	SMILES
841.25 ± 1 kg/m3	O=C1CCCC1 [cyclopentanone] + CCCCCCCCO
849.88 ± 1.1 kg/m3	O=C1CCCC1 [cyclopentanone] + CCCCO
853.69 ± 1.1 kg/m3	O=C1CCCC1 [cyclopentanone] + CCO
842.44 ± 1.1 kg/m3	O=C1CCCC1 [cyclopentanone] + CCCCCCO
839.24 ± 1 kg/m3	O=C1CCCC1 [cyclopentanone] + CCCCCCCCCCO

same assay, conditions: 298.15 K; 101.3 kPa; Liquid; Vibrating tube method; x1 = 0.4

mass density	SMILES
850.89 ± 1 kg/m3	O=C1CCCC1 [cyclopentanone] + CCCCCCCCO
864.47 ± 1.1 kg/m3	O=C1CCCC1 [cyclopentanone] + CCCCO
871.79 ± 1.1 kg/m3	O=C1CCCC1 [cyclopentanone] + CCO
853.65 ± 1.1 kg/m3	O=C1CCCC1 [cyclopentanone] + CCCCCCO
847.47 ± 1 kg/m3	O=C1CCCC1 [cyclopentanone] + CCCCCCCCCCO

same assay, conditions: 298.15 K; 101.3 kPa; Liquid; Vibrating tube method; x1 = 0.5

mass density	SMILES
862.2 ± 1.1 kg/m3	O=C1CCCC1 [cyclopentanone] + CCCCCCCCO
878.88 ± 1.1 kg/m3	O=C1CCCC1 [cyclopentanone] + CCCCO
888.17 ± 1.1 kg/m3	O=C1CCCC1 [cyclopentanone] + CCO
866.02 ± 1.1 kg/m3	O=C1CCCC1 [cyclopentanone] + CCCCCCO
857.91 ± 1.1 kg/m3	O=C1CCCC1 [cyclopentanone] + CCCCCCCCCCO

same assay, conditions: 298.15 K; 101.3 kPa; Liquid; Vibrating tube method; x1 = 0.6

mass density	SMILES
874.88 ± 1.1 kg/m3	O=C1CCCC1 [cyclopentanone] + CCCCCCCCO
893.05 ± 1.1 kg/m3	O=C1CCCC1 [cyclopentanone] + CCCCO
902.91 ± 1.1 kg/m3	O=C1CCCC1 [cyclopentanone] + CCO
879.48 ± 1.1 kg/m3	O=C1CCCC1 [cyclopentanone] + CCCCCCO
870.34 ± 1.1 kg/m3	O=C1CCCC1 [cyclopentanone] + CCCCCCCCCCO

same assay, conditions: 298.15 K; 101.3 kPa; Liquid; Vibrating tube method; x1 = 0.7

mass density	SMILES
889.18 ± 1.1 kg/m3	O=C1CCCC1 [cyclopentanone] + CCCCCCCCO
906.81 ± 1.1 kg/m3	O=C1CCCC1 [cyclopentanone] + CCCCO
915.99 ± 1 kg/m3	O=C1CCCC1 [cyclopentanone] + CCO
894.17 ± 1.1 kg/m3	O=C1CCCC1 [cyclopentanone] + CCCCCCO
884.81 ± 1.1 kg/m3	O=C1CCCC1 [cyclopentanone] + CCCCCCCCCCO

same assay, conditions: 298.15 K; 101.3 kPa; Liquid; Vibrating tube method; x1 = 0.8

mass density	SMILES
905.27 ± 1.1 kg/m3	O=C1CCCC1 [cyclopentanone] + CCCCCCCCO
920.01 ± 1.1 kg/m3	O=C1CCCC1 [cyclopentanone] + CCCCO
927.18 ± 1 kg/m3	O=C1CCCC1 [cyclopentanone] + CCO
909.92 ± 1.1 kg/m3	O=C1CCCC1 [cyclopentanone] + CCCCCCO
901.52 ± 1.1 kg/m3	O=C1CCCC1 [cyclopentanone] + CCCCCCCCCCO

same assay, conditions: 298.15 K; 101.3 kPa; Liquid; Vibrating tube method; x1 = 0.9

mass density	SMILES
923.62 ± 1.1 kg/m3	O=C1CCCC1 [cyclopentanone] + CCCCCCCCO
932.67 ± 1.1 kg/m3	O=C1CCCC1 [cyclopentanone] + CCCCO
936.58 ± 1 kg/m3	O=C1CCCC1 [cyclopentanone] + CCO
926.64 ± 1.1 kg/m3	O=C1CCCC1 [cyclopentanone] + CCCCCCO
921.01 ± 1.1 kg/m3	O=C1CCCC1 [cyclopentanone] + CCCCCCCCCCO

same assay, conditions: 298.15 K; 101.3 kPa; Liquid; Vibrating tube method; x1 = 1

mass density	SMILES
944.31 ± 1 kg/m3	O=C1CCCC1 [cyclopentanone] + CCCCCCCCO
944.31 ± 1 kg/m3	O=C1CCCC1 [cyclopentanone] + CCCCO
944.31 ± 1 kg/m3	O=C1CCCC1 [cyclopentanone] + CCO
944.31 ± 1 kg/m3	O=C1CCCC1 [cyclopentanone] + CCCCCCO
944.31 ± 1 kg/m3	O=C1CCCC1 [cyclopentanone] + CCCCCCCCCCO

same assay, conditions: 298.15 K; 101.3 kPa; Liquid; Vibrating tube method; x2 = 0

SMILES	mass density
CCCCO [butan-1-ol] + O=C1CCCC1	805.92 ± 1 kg/m3
CCCCCCCCCCO [decan-1-ol] + O=C1CCCC1	826.71 ± 1 kg/m3

The next lines start with the values.

mass density	SMILES
785.26 ± 1 kg/m3	CCO [ethanol] + O=C1CCCC1
821.98 ± 1 kg/m3	CCCCCCCCO [octan-1-ol] + O=C1CCCC1
815.99 ± 1.2 kg/m3	CCCCCCO [hexan-1-ol] + O=C1CCCC1

test: relative permittivity at various frequencies (dimensionless); details: 298.15 K; 101.3 kPa; Liquid; Frequency=0.01 MHz; Coaxial cylinder capacitor

SMILES	relative permittivity
CCCCCCCCO [octan-1-ol]	9.85 ± 0.55
CCCCO [butan-1-ol]	17.49 ± 0.71
CCCCCCO [hexan-1-ol]	13.09 ± 0.62
CCCCCCCCCCO [decan-1-ol]	7.74 ± 0.49
CCO [ethanol]	24.37 ± 0.84

The next lines start with the values.

relative permittivity	SMILES
2.02 ± 0.29	C1CCCCC1 [cyclohexane]
13.52 ± 0.63	O=C1CCCC1 [cyclopentanone]

test: refractive index (Na D-line) (dimensionless); xn = mol fraction of the nth substance listed; details: 298.15 K; 101.3 kPa; Liquid; Standard Abbe refractometry; x1 = 0.03

refractive index	SMILES
1.4235 ± 0.001	O=C1CCCC1 [cyclopentanone] + C1CCCCC1

same assay, conditions: 298.15 K; 101.3 kPa; Liquid; Standard Abbe refractometry; x1 = 0.05

refractive index	SMILES
1.4235 ± 0.001	O=C1CCCC1 [cyclopentanone] + C1CCCCC1

same assay, conditions: 298.15 K; 101.3 kPa; Liquid; Standard Abbe refractometry; x1 = 0.1

refractive index	SMILES
1.4236 ± 0.001	O=C1CCCC1 [cyclopentanone] + C1CCCCC1
1.4276 ± 0.0011	O=C1CCCC1 [cyclopentanone] + CCCCCCCCO
1.4015 ± 0.0011	O=C1CCCC1 [cyclopentanone] + CCCCO
1.3696 ± 0.0011	O=C1CCCC1 [cyclopentanone] + CCO
1.4175 ± 0.0011	O=C1CCCC1 [cyclopentanone] + CCCCCCO
1.4345 ± 0.0011	O=C1CCCC1 [cyclopentanone] + CCCCCCCCCCO

same assay, conditions: 298.15 K; 101.3 kPa; Liquid; Standard Abbe refractometry; x1 = 0.15

refractive index	SMILES
1.4237 ± 0.001	O=C1CCCC1 [cyclopentanone] + C1CCCCC1

same assay, conditions: 298.15 K; 101.3 kPa; Liquid; Standard Abbe refractometry; x1 = 0.2

refractive index	SMILES
1.4239 ± 0.001	O=C1CCCC1 [cyclopentanone] + C1CCCCC1
1.4278 ± 0.0011	O=C1CCCC1 [cyclopentanone] + CCCCCCCCO
1.4057 ± 0.0011	O=C1CCCC1 [cyclopentanone] + CCCCO
1.3793 ± 0.0011	O=C1CCCC1 [cyclopentanone] + CCO
1.4189 ± 0.0011	O=C1CCCC1 [cyclopentanone] + CCCCCCO
1.4339 ± 0.0011	O=C1CCCC1 [cyclopentanone] + CCCCCCCCCCO

same assay, conditions: 298.15 K; 101.3 kPa; Liquid; Standard Abbe refractometry; x1 = 0.3

refractive index	SMILES
1.4244 ± 0.001	O=C1CCCC1 [cyclopentanone] + C1CCCCC1
1.4282 ± 0.0011	O=C1CCCC1 [cyclopentanone] + CCCCCCCCO
1.4098 ± 0.0011	O=C1CCCC1 [cyclopentanone] + CCCCO
1.3884 ± 0.0011	O=C1CCCC1 [cyclopentanone] + CCO
1.4204 ± 0.0011	O=C1CCCC1 [cyclopentanone] + CCCCCCO
1.4335 ± 0.0011	O=C1CCCC1 [cyclopentanone] + CCCCCCCCCCO

same assay, conditions: 298.15 K; 101.3 kPa; Liquid; Standard Abbe refractometry; x1 = 0.4

refractive index	SMILES
1.4252 ± 0.001	O=C1CCCC1 [cyclopentanone] + C1CCCCC1
1.4287 ± 0.0011	O=C1CCCC1 [cyclopentanone] + CCCCCCCCO
1.4137 ± 0.0011	O=C1CCCC1 [cyclopentanone] + CCCCO
1.3968 ± 0.0011	O=C1CCCC1 [cyclopentanone] + CCO
1.4221 ± 0.0011	O=C1CCCC1 [cyclopentanone] + CCCCCCO
1.4333 ± 0.0011	O=C1CCCC1 [cyclopentanone] + CCCCCCCCCCO

same assay, conditions: 298.15 K; 101.3 kPa; Liquid; Standard Abbe refractometry; x1 = 0.5

refractive index	SMILES
1.4262 ± 0.001	O=C1CCCC1 [cyclopentanone] + C1CCCCC1
1.4294 ± 0.0011	O=C1CCCC1 [cyclopentanone] + CCCCCCCCO
1.4175 ± 0.0011	O=C1CCCC1 [cyclopentanone] + CCCCO
1.4046 ± 0.0011	O=C1CCCC1 [cyclopentanone] + CCO
